According to patent US12084437B2, “Halo-substituted piperidines as orexin receptor modulators” (AstraZeneca AB, priority 2016, dated 2024):

How the values were obtained:
[1] = Metabolic stability and intrinsic clearance in human liver microsomes; format: in vitro ADME; details: pooled human liver microsomes, NADPH, 1 uM compound, 37 C; read-out: hMics CLint
Procedure: Human Liver Microsomes (HLM) were obtained from BD Gentest UltraPool 150 donor (Lot no. 38289) at a concentration of 20 mg/mL protein. HLMs are stored in a −80° C. freezer. Prior to use, the pooled HLM were removed from the freezer and allowed to thaw in a 37° C. water bath and then stored on wet ice. 100 μmol/L test compound solution and positive control (PC) solutions (phenacetin, verapamil, diclofenac, imiprimine, benzydamine and metoprolol) were prepared by adding 2 μL of 10 mmol/L stock solution in DMSO to 198 μL of acetonitrile. HML mixtures were prepared by adding 1325 μL of 20 mg/mL HLM to 22260 μL of phosphate buffer to obtain the HLM mixture at 1.1236 mg/mL. Prior to testing the compounds, 222.5 μL of 1.1236 mg/mL HLM mixtures and 25 μL of the 10 mM NADPH were mixed in the incubation plates on a whirly mixer for 10 seconds. The incubation plates were pre-warmed at 37° C. for 8 min. […]
Quantitative LC-MS analysis were carried out with an API 4000 (AB sciex, USA) Ultra mass spectrometer at MRM mode (MS/MS). Peak areas were determined from extracted ion chromatograms. Percent parent remaining was calculated from peak area of test compound or PC. The slope value, k, was determined by linear regression of the natural logarithm of percent parent remaining vs. incubation time curve. […]
The in vitro half-life (in vitro t1/2) was determined from the slope value: in vitro t½=−(0.693/k). […]

OX2 = target: T1, OX2 (Homo sapiens, UniProt O43614); test: Orexin receptor cell-based functional assay, [Ca2+]i by FLIPR, CHO-OX2 cells; details: FLIPR calcium, antagonism of EC90 of [OX]
T1 construct: expressed in transfected cells; host or cells: CHO (CHO-OX2)
T1 sequence (O43614 1-444): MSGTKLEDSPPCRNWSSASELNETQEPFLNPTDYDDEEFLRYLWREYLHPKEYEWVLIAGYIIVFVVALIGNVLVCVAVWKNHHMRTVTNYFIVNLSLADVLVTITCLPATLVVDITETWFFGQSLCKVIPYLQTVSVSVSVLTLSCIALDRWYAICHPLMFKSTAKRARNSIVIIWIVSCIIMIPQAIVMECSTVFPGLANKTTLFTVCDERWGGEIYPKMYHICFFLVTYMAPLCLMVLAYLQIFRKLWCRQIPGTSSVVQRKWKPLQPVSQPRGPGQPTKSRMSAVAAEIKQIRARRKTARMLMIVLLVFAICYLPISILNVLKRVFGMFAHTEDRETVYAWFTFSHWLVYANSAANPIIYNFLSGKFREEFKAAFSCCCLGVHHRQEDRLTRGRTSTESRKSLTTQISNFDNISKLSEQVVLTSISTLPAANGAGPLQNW
Method in brief: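 CHO cells expressing human OX1 or OX2 (20,000/well, grown overnight) were loaded with Calcium6 dye plus 2.5 mM probenecid for 2 h at 37 °C, then preincubated 30 min with compound (0.1 nM–10 µM). FLIPR fluorescence (ex 488/em 540 nm) was tracked before and after an EC90 orexin challenge.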

OX1 = target: T2, OX1 (Homo sapiens, UniProt O43613); test: Orexin receptor cell-based functional assay, [Ca2+]i by FLIPR, CHO-OX1 cells; details: FLIPR calcium, antagonism of EC90 of [OX], read-out: OXI, IC50
T2 construct: expressed in transfected cells; host or cells: CHO (CHO-OX1)
T2 sequence (O43613 1-425): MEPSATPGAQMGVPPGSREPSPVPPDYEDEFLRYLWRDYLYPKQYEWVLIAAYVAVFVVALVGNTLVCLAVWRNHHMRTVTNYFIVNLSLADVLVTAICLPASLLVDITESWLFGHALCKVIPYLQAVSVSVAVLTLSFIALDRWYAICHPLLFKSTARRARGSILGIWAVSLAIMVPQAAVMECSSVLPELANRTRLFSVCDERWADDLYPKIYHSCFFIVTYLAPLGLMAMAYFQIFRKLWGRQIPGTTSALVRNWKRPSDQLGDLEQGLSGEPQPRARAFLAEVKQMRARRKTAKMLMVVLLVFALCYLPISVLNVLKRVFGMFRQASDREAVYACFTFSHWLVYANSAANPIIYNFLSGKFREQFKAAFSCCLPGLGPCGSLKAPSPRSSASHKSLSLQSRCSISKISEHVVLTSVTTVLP

| microsomal CLint at 1 µM [1] [µL/min/mg] | IC50 (OX2) [nM] | IC50 (OX1) [nM] | Structure (SMILES) |
| --- | --- | --- | --- |
| 29 | > 5000 | 2 | Cc1nc(C(=O)N2CC(F)(F)C[C@@H](C)[C@H]2CNc2ccc(C(F)(F)F)cn2)c(-c2ccc(F)cc2)s1 [Compound 185, ((2S,3R)-5,5-difluoro-3-methyl-2-(((5-(trifluoromethyl)pyridin-2-yl)amino)methyl)piperidin-1-yl)(5-(4-fluorophenyl)-2-methylthiazol-4-yl)methanone] |
| < 3 | 3500 | 4 | C[C@@H]1CC(F)(F)CN(C(=O)c2nn(C)cc2-c2ccc(Cl)cc2)[C@@H]1CNc1cnc(C(F)(F)F)cn1 [Compound 129, (4-(4-chlorophenyl)-1-methyl-1H-pyrazol-3-yl)((2S,3R)-5,5-difluoro-3-methyl-2-(((5-(trifluoromethyl)pyrazin-2-yl)amino)methyl)piperidin-1-yl)methanone] |
